Reference: ChEMBL document CHEMBL1201862, “PubChem BioAssay data set” (2004)
Activity calls are given as the source filed them.

Assays:
[1] = target: T1, Apoptotic protease-activating factor 1 (Homo sapiens, UniProt O14727); assay type: functional
T1 sequence (O14727 whole entry): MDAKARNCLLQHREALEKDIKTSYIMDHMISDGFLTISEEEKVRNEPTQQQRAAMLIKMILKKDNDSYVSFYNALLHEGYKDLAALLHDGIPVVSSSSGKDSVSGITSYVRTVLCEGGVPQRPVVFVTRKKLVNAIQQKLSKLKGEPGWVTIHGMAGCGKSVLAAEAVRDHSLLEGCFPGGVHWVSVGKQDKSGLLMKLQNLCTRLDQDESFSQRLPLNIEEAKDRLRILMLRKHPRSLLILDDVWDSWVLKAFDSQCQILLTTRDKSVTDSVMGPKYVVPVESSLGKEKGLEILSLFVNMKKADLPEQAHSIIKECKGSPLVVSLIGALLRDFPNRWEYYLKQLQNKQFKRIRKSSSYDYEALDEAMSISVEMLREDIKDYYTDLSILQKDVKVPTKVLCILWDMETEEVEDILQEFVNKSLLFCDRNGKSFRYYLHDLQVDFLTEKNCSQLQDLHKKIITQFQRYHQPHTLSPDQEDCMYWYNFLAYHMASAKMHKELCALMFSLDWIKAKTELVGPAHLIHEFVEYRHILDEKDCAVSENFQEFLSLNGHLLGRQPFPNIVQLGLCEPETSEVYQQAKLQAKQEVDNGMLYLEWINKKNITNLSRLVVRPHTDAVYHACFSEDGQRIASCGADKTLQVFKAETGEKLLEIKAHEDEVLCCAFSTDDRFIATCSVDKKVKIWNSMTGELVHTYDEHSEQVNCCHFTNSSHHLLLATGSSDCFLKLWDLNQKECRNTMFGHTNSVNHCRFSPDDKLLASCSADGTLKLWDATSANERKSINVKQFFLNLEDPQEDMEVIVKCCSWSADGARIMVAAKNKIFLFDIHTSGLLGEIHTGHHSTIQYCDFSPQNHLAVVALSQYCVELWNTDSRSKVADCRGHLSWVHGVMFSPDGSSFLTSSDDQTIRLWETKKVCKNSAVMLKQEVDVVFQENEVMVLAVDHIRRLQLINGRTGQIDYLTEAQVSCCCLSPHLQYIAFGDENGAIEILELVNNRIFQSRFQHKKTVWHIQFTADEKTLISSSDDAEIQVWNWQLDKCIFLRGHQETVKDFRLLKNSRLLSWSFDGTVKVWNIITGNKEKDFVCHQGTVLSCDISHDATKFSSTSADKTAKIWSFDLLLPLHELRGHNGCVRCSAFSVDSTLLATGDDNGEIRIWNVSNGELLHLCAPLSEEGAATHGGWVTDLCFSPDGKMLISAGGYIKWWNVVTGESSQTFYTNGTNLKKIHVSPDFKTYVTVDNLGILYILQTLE

Cytochrome P450 1A2 = target: T2, Cytochrome P450 1A2 (Homo sapiens, UniProt P05177);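 note: PubChem cytochrome P450 panel assay, CYP1A2 panel member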
T2 sequence (P05177 whole entry): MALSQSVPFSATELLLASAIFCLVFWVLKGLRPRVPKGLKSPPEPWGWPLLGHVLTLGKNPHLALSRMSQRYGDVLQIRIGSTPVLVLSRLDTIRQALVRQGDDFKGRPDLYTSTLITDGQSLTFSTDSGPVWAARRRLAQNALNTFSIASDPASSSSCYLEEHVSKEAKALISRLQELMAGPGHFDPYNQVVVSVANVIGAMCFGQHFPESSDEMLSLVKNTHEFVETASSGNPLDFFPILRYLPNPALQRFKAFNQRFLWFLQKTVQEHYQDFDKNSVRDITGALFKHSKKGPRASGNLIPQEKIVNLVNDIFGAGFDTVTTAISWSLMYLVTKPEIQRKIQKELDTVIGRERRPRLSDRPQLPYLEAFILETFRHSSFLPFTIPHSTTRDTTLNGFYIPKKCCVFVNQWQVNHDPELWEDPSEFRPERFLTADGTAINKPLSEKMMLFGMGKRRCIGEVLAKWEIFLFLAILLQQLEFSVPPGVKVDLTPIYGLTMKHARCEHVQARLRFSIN

Cytochrome P450 3A4 = Cytochrome P450 3A4 (Homo sapiens, UniProt P08684);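 note: CYP3A4 tested as one member of a cytochrome P450 panel screen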
Cytochrome P450 3A4, sequence (P08684 whole entry): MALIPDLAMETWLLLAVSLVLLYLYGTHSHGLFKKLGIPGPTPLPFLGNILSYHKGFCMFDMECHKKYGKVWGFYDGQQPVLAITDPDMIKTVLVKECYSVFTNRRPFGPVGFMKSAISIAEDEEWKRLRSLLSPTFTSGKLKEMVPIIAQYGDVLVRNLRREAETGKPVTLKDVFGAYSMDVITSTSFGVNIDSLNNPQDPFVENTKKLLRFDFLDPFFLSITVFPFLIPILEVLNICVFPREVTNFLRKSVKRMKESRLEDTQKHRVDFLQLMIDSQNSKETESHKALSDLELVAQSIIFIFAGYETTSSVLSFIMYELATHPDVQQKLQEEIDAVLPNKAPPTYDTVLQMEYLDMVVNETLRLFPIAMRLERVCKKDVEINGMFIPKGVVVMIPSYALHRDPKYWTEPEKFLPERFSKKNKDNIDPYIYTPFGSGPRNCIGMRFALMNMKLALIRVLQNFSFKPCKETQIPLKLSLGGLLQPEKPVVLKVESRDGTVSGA

Cytochrome P450 2D6 = Cytochrome P450 2D6 (Homo sapiens, UniProt P10635);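 note: CYP2D6 member of a cytochrome P450 panel assay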
Cytochrome P450 2D6, sequence (P10635 whole entry): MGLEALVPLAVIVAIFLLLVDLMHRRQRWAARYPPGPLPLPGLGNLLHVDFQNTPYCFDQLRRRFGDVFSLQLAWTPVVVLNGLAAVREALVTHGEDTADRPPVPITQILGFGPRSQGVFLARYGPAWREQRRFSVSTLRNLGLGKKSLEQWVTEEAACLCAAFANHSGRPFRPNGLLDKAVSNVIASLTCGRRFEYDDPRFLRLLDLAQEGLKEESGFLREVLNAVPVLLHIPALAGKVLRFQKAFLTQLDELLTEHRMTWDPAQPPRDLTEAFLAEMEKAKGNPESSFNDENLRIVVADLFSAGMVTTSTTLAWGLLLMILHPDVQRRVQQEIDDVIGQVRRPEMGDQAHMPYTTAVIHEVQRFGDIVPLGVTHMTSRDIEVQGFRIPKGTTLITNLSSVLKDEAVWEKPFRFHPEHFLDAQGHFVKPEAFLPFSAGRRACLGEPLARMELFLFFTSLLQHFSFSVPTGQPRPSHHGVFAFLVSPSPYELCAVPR

Genome polyprotein = Genome polyprotein (dengue virus type 2, UniProt P29990); experiment: flavivirus cap methylation enzyme inhibition – biochemical, confirmation dose response, primary screen (AID 588689); assay type: functional
Genome polyprotein, sequence (P29990 2492-3391 limits assumed): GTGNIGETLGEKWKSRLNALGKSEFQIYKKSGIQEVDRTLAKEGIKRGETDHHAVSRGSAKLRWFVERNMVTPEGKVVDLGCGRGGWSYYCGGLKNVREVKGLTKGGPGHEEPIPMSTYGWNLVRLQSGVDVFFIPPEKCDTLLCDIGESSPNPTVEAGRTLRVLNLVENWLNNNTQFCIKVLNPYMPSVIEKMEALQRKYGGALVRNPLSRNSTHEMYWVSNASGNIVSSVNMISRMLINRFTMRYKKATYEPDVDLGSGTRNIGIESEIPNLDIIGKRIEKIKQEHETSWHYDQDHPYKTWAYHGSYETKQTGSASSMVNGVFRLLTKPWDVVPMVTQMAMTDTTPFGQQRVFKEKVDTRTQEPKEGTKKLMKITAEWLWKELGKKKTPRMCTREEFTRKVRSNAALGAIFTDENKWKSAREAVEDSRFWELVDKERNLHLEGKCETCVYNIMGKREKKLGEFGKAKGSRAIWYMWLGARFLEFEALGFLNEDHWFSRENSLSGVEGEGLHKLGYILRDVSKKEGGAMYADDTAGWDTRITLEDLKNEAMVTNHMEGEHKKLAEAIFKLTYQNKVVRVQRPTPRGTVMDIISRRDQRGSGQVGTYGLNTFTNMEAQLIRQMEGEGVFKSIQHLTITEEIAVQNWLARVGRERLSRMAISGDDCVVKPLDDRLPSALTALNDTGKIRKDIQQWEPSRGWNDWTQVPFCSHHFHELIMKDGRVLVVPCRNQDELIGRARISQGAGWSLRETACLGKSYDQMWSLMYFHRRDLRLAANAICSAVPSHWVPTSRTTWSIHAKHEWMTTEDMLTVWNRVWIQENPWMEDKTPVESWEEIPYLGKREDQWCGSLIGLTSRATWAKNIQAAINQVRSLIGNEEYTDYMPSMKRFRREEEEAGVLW

[2] = target: T3, Polyadenylate-binding protein 1 (Homo sapiens, UniProt P11940); experiment: MLLE binding blockers, Cy5 peptide tracer – biochemical, fluorescence polarization, Cy5-PAM2 peptide, secondary, miRNA deadenylation inhibitor project, dose response (AID 602260); assay type: functional; details: read-out: IC50_Mean
T3 sequence (P11940 whole entry, the tested form may be a part): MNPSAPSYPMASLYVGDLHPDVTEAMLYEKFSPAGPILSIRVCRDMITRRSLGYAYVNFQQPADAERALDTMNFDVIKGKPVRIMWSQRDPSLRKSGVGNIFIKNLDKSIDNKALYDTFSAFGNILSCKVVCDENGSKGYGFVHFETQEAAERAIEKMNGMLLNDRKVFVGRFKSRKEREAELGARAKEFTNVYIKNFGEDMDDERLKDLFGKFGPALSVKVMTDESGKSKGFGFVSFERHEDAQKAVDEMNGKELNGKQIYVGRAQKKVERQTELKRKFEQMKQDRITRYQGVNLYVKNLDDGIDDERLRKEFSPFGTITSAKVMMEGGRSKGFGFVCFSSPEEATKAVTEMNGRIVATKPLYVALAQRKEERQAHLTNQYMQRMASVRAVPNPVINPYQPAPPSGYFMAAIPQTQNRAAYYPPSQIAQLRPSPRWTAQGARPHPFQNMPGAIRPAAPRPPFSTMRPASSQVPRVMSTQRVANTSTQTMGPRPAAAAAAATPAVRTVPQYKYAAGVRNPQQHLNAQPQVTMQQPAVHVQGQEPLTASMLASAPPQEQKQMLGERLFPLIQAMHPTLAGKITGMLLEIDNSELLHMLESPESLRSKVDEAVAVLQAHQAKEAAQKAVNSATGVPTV

[3] = target: T3, Polyadenylate-binding protein 1; experiment: MLLE domain peptide-binding blockers, IC50 – biochemical, fluorescence polarization, FITC-PAM2 peptide, dose response (AID 602259); assay type: functional; details: read-out: IC50_Mean
Vero = experiment: viability of Vero cells under compound – cytotoxicity control for flavivirus capping enzyme inhibitors (AID 588742); assay type: functional; details: Chlorocebus sabaeus
[4] = viability loss in THP-1 monocytes – THP-1 cells, cytotoxicity control for Vif-APOBEC3G degradation inhibitor project, dose response (AID 1117359); assay type: functional; details: THP-1
[5] = decrease of insulin promoter-GFP reporter – imaging, high-content screening, mouse beta cells (AID 1628); assay type: functional; details: MIN6
[6] = MIN6 cell viability loss – mouse insulinoma, cytotoxicity control, dose response (AID 2122); assay type: functional;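 note: confirmatory high-throughput counterscreen run to flag cytotoxic compounds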
[7] = viability of uninfected HEp-2 cells – cell-based, HTS, cytotoxicity control for RSV inhibitor project, dose response (AID 2410); assay type: functional; details: human respiratory syncytial virus
INS1 = experiment: INS-1E survival protection against cytokine death – cell-based, luminescence, retest, dose response (AID 449756); assay type: functional; details: Rattus norvegicus;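 note: cell death triggered by IL-1 beta plus TNF-alpha plus IFN-gamma mixture; protective hits raise ATP signal compared with cytokine alone wells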
[8] = target: T4, Replicative DNA helicase DnaB (Mycobacterium tuberculosis, UniProt P9WMR3); experiment: DnaB intein splicing inhibitors, dose response, biochemical, cell-free fluorescence (AID 449749); assay type: functional
T4 sequence (P9WMR3 whole entry): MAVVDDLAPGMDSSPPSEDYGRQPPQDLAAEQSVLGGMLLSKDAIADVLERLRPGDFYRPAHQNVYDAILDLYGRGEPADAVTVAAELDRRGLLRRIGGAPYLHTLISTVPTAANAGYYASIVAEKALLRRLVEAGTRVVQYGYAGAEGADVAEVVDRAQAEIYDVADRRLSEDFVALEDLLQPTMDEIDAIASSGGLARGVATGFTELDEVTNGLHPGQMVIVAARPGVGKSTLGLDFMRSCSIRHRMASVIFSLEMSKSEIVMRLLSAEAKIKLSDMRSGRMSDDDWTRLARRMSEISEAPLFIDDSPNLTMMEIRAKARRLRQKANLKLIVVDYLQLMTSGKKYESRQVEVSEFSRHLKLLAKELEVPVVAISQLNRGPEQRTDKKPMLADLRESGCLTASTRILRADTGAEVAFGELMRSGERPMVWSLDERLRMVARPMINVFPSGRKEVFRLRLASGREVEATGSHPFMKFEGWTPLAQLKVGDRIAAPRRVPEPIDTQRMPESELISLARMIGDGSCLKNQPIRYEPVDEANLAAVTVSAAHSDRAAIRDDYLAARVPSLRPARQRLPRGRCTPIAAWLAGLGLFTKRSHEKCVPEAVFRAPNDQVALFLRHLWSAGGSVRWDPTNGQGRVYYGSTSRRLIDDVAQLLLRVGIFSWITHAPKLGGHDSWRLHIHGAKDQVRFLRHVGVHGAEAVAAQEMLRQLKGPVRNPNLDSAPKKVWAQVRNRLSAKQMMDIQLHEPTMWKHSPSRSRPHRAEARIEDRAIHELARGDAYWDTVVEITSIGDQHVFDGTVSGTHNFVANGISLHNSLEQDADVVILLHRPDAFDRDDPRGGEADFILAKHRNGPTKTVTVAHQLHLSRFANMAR

Coagulation factor XII = target: T5, Coagulation factor XII (Homo sapiens, UniProt P00748); assay type: functional;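 note: activated factor XIIa alpha cleaving a fluorogenic AMC peptide substrate; inhibitor potency from loss of enzyme activity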
T5 sequence (P00748 whole entry): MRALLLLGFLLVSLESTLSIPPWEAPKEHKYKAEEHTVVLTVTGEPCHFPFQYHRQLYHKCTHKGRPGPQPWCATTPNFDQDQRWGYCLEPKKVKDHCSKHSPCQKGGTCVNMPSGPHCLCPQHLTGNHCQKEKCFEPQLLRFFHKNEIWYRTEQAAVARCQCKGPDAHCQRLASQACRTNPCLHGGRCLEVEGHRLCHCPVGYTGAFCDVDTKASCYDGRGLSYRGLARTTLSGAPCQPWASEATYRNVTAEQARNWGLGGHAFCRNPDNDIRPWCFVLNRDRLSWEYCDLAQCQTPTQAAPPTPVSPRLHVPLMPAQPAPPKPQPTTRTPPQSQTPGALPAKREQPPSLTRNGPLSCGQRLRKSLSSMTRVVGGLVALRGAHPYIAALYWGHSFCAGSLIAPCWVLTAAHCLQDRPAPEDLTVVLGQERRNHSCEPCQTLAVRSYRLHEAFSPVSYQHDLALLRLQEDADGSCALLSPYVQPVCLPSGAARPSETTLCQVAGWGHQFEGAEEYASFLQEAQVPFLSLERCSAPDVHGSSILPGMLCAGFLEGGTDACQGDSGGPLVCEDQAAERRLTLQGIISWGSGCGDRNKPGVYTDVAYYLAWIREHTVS

Protein RecA = target: T6, Protein RecA (Mycobacterium tuberculosis, UniProt P9WHJ3); experiment: Fluorescence Cell-Free Homogeneous Dose Retest to Identify Inhibitors of RecA-Intein Splicing Activity. [Related pubchem assays (depositor defined):AID2097, AID2223, AID489010, AID492950]; assay type: functional
T6 sequence (P9WHJ3 whole entry): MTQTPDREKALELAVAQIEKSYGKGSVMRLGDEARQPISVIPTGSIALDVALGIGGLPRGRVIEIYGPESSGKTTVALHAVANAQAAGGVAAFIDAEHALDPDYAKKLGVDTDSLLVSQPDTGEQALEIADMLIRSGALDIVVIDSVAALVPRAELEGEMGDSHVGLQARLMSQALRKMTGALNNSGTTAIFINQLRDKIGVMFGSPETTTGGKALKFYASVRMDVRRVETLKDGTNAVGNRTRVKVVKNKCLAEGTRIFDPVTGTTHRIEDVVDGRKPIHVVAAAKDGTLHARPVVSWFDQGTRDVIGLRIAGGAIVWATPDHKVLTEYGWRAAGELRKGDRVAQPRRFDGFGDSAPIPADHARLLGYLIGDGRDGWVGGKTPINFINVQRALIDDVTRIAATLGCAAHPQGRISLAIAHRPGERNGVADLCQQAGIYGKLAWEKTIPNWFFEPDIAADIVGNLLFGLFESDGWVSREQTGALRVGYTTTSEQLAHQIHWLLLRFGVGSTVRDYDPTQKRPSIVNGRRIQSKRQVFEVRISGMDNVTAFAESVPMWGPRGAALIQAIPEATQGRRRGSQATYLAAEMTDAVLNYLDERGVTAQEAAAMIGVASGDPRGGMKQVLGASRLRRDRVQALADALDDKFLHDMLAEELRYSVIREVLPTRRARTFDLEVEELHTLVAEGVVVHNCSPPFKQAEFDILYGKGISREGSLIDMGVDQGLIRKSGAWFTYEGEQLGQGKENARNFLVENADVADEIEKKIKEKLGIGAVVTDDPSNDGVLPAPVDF

Cytochrome P450 2C9 = Cytochrome P450 2C9 (Homo sapiens, UniProt P11712)
Cytochrome P450 2C9, sequence (P11712 whole entry): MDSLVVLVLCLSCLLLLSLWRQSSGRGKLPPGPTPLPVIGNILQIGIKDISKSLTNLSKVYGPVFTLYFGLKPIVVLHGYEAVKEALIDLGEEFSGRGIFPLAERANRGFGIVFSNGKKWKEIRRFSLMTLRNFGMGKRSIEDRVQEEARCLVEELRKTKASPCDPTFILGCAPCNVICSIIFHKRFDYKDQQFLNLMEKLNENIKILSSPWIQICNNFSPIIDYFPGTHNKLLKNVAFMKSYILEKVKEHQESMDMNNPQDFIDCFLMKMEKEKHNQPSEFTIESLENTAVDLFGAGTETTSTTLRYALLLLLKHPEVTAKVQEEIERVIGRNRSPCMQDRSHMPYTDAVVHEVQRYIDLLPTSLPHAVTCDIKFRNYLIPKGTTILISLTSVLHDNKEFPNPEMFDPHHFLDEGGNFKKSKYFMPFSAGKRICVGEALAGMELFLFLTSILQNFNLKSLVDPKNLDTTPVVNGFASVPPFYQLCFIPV

[9] = Luminescence Cell-Based Dose Retest to Confirm Inhibitors of Cancer Stem Cells. [Related pubchem assays (depositor defined):AID2717, AID2721]; assay type: functional; details: Homo sapiens

In the case of Cc1ccc(-c2nnc(CSc3nnc(COc4cccc5ccccc45)n3-c3ccccc3)o2)cc1, the IC50 [1] is reported as 6.83 µM (active).

With O[C@@H](c1ccccc1)C1CCN(CCc2ccccc2)CC1 the AC50 (Cytochrome P450 1A2) was 31.6 µM (inconclusive), the AC50 (Cytochrome P450 3A4) was “inconclusive” and the AC50 (Cytochrome P450 2D6) was 25.1 µM (inconclusive).

In the case of NCCS [CYSTEAMINE], the AC50 (Cytochrome P450 3A4) is reported as “inconclusive”.

In the case of Cc1sc2nc3ccc(NCc4ccco4)nn3c(=O)c2c1C, the IC50 (Genome polyprotein) is reported as > 100 µM (active), the IC50 [2] is reported as > 66 µM (inactive) and the IC50 [3] is reported as > 66 µM (inactive). For the same compound, the CC50 (Vero) was > 40 µM (active).

In the case of COc1cc2c(cc1OC)C(=O)C(Br)CC2 (stereo not given), the CC50 [4] is reported as > 40 µM (active) and the CC50 (Vero) is reported as 26.4 µM (active).

In the case of CC(=O)c1cccc(S(=O)(=O)N2CCN(c3nc4cc(C)cc(C)c4cc3C#N)CC2)c1, the IC50 [5] is reported as 3.28 µM (active), the IC50 [6] is reported as 5.84 µM (active) and the CC50 [7] is reported as 18.4 µM (active).

With CCN1CCN(CC(=O)N2c3ccccc3CC2C)CC1.O=C(O)C(=O)O (stereo not given) the AC50 (Cytochrome P450 3A4) was “inconclusive” and the AC50 (Cytochrome P450 2D6) was 17.8 µM (inconclusive).

For COc1cc(/C=C2\SC(=S)N(NS(=O)(=O)c3ccccc3)C2=O)cc(OC)c1OC, the IC50 (Genome polyprotein) was 65 µM (active) and the CC50 (Vero) was > 40 µM (active).

For COc1cc(CN2CCN(c3cc(C)ccc3C)CC2)ccc1O, the IC50 [5] was 2.74 µM (active), the AC50 (INS1) was 1.66 µM (active) and the IC50 [6] was 1.4 µM (active).

For O=C(COC(=O)C1CC(=O)N(Cc2ccco2)C1)c1ccc(OC(=O)c2ccco2)cc1 (stereo not given), the AC50 [8] was > 380 µM (inactive), the IC50 (Coagulation factor XII) was 13.3 µM (active) and the EC50 (Protein RecA) was 18 µM (active).

With CCOC(=O)N1CCN(C2=C(NS(=O)(=O)c3ccc(Br)cc3)C(=O)c3ccccc3C2=O)CC1 the CC50 (Vero) was > 40 µM (active).

For CSc1nc2ccccc2cc1/C=C(\C#N)c1cccc(Cl)c1, the AC50 (Cytochrome P450 2C9) was 39.8 µM (inconclusive), the AC50 [9] was 1.17 µM (active) and the AC50 (Cytochrome P450 3A4) was “inconclusive”.

With CC(=O)O[C@]1(C(C)=O)CC[C@@H]2[C@@H]3C=C(C)C4=CC(=O)CC[C@@]4(C)[C@H]3CC[C@]21C the AC50 (Cytochrome P450 2C9) was 12.6 µM (inconclusive) and the AC50 (Cytochrome P450 3A4) was “inconclusive”.
